Data on 5 compounds can be found in patent publication US12516092B2, “Peptide ligands of the GDNF family receptor A-like (GFRAL) receptor” (THE TRUSTEES OF THE UNIVERSITY OF PENNSYLVANIA, priority 2019, dated 2026).

A short description of series [1]: in vitro PK study in rat microsomes. It is filed as in vitro ADME. Here is the method: FIG. 8 is a graph illustrating the results from in vitro PK study of GFRAL receptor antagonist in rat microsomes. […] Reaction velocity (V) was calculated to be 511 uL/1 mg. Intrinsic clearance (Cl-int) was determined to be 339 uL/min/mg protein.
In a further series the target is T1, human GFRAL receptor (Homo sapiens, UniProt Q6UXV0).
T1 sequence (Q6UXV0 19-394): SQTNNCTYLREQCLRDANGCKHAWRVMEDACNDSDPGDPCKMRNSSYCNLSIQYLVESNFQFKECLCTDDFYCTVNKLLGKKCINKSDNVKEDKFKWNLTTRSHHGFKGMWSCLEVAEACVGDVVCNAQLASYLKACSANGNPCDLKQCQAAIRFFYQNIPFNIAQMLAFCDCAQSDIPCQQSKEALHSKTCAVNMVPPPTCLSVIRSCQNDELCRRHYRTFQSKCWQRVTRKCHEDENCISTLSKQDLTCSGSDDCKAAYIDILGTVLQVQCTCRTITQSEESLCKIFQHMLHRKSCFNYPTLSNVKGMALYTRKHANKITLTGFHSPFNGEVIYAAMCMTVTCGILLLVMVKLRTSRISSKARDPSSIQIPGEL
The series can be described thus: Cy5-conjugate binding to human GFRAL receptor in vitro, tracked with anti-Cy5 antibody. To be noted: Cy5-conjugate exposed to human GFRAL receptor in vitro. From the text:
A Cy5-conjugate of GFRAL receptor antagonist was synthesized and exposed to the human GFRAL receptor in vitro and tracked for binding using an anti-Cy5 antibody.

In another series the test system is male rats. As to the kind of experiment: Ejaculation studies in rats. To be noted: video recorded for 3 h. The class given is in vivo, rat. As for the experimental part:
Rats were video recorded for 3 h and the number of spontaneous ejaculations were analyzed by an observer blinded to treatment groups. Without wishing to be bound by theory, GFANT01 may be an agonist of the GFRAL receptor.

In series [2] the test system is rats. As to the kind of experiment: food intake study. It is filed as in vivo, rat. Here is the method:
(§1) FIG. 5A is a graph of a food intake study performed to evaluate the efficacy of unconjugated GFANT05 peptide (TK*[…]; SEQ ID NO: 5, wherein K* is K azido) to reduce nausea.
(§2) Five potential ligands (GFANT01-GFANT05, SEQ. ID NOs: 1-5, wherein the K* in each peptide is Lysine(N3)) were synthesized. The effects of each of the novel ligands were tested for their ability to alter nausea in rats over the course of 24 hours. […] Animals were given either MIC-1 (30 pmol), the endogenous ligand of GFRAL that suppresses appetites, GFANT05 (300 pmol), or a combination of both and their food intake was monitored for up to 24 hrs (FIG. 5A). […] In addition, kaolin intake, a reliable measure of nausea in rats, was reduced in animals receiving GFANT05 compared to vehicle alone and that of a known nausea-inducing compound (MIC-1) (FIG. 5B). […] Analysis of emetic episodes were measured by an observer blinded to treatment groups.

Series [3] concerns rats. The series can be described thus: kaolin intake study. The class given is in vivo, rat. Particulars: compared to vehicle alone and MIC-1. Here is the method:
as §1, §2

Series [4] concerns rats. The series can be described thus: Nausea/malaise (illness-like behaviors) studies in rats. It is filed as in vivo, rat. Particulars: over the course of 24 hours. As for the experimental part: as §2
For another series, the system named is GFRAL receptor. The series can be described thus: co-localization with the GFRAL receptor in the brainstem (image). The text has this: This technology provides a new route to treat cachexia and chemotherapy induced nausea/vomiting by uniquely blocking the GDF15-GFRAL signaling in the brainstem.
Series [5] concerns the target T2, recombinant human GFRα-like His-tag receptor (Homo sapiens, UniProt Q6UXV0).
T2 construct: purchased R&D 9647-GR-050
T2 sequence (Q6UXV0 19-394): T1 sequence (Q6UXV0 19-394)
The series can be described thus: ELISA binding assay of GDF15 to GFRAL receptor. To be noted: GDF15 run at 100 ng/mL to 0.005 ng/mL; receptor 0.1 μg/mL on nickel coated plate. As for the experimental part: To validate binding of the synthesized peptides to the GFRAL receptor, an ELISA assay was developed to determine the binding affinity of the peptides for their receptor. The primary antibody (Abcam ab206414) was diluted to 1 μg/mL. The secondary antibody was diluted by placing 5 μL into 10 mL assay buffer. GDF15 was run at concentrations of 100 ng/mL to 0.005 ng/mL. The recombinant human GFRα-like His-tag receptor (R&D 9647-GR-050) was added to the Pierce™ nickel coated plate (ThermoFisher Scientific 15442) at 0.1 μg/mL in a total volume of 100 μL.
On the technique in general: In an ELISA, binding on a coated surface is turned into a signal by an enzyme label.

Non-standard residues stand in square brackets, D forms with d. Residues, ends and D or L forms follow the SMILES beside them. No end group written: not given here. Lys(N3) = [N-]=[N+]=NCCCC[C@H](N)C(=O)O

For the compound `CC[C@H](C)[C@H](NC(=O)[C@H](CC(C)C)NC(=O)[C@H](CCC(=O)O)NC(=O)[C@H](CCC(=O)O)NC(=O)[C@H](CCCCN=[N+]=[N-])NC(=O)[C@@H](N)[C@@H](C)O)C(=O)N[C@@H](Cc1c[nH]cn1)C(=O)N[C@@H](C)C(=O)N[C@@H](Cc1c[nH]cn1)C(=O)N[C@@H](C)C(=O)N[C@@H](CC(=O)O)C(=O)N1CCC[C@H]1C(=O)N[C@@H](CCSC)C(=O)N[C@H](C(=O)N[C@@H](CC(C)C)C(=O)N[C@H](C(=O)N[C@@H](CCC(N)=O)C(=O)N[C@@H](CCCCN)C(=O)N[C@H](C(=O)N[C@@H](CC(=O)O)C(=O)N[C@H](C(=O)NCC(=O)N[C@H](C(=O)N[C@@H](CO)C(=O)N[C@@H](CC(C)C)C(=O)N[C@@H](CCC(N)=O)C(=O)N[C@H](C(=O)N[C@@H](Cc1ccc(O)cc1)C(=O)N[C@@H](CC(=O)O)C(=O)O)[C@@H](C)O)C(C)C)[C@@H](C)O)[C@@H](C)O)[C@@H](C)CC)C(C)C` [GFRAL receptor antagonist] (H-T[Lys(N3)]EELIHAHADPMVLIQKTDTGVSLQTYD-OH; N-terminus and C-terminus assumed), in series [1], the “Reaction velocity (V)” value amounted to 511 uL/1 mg and the half-life (as a rule, how long it takes for the measured level to halve) was 1.74 h. Further, the microsomal CLint in series [1] (read-out: Intrinsic clearance (Cl-int)) came to 339 µL/min/mg.

In the case of “Cy5-conjugate of GFRAL receptor antagonist: Cy5-conjugate of GFRAL receptor antagonist, synthesized for tracking binding with an anti-Cy5 antibody (T[Lys(N3)]EELIHAHADPMVLIQKTDTGVSLQTYD; also: Cy5 conjugate, site not given here)”, the “binding to the GFRAL receptor” value with human GFRAL receptor was “confirming GFRAL receptor antagonist binding to the GFRAL receptor”.

As to “GFANT01: engineered peptide EDDVSFQK*LDDNVRYHTLRK; may be an agonist of the GFRAL receptor (EDDVSFQ[Lys(N3)]LDDNVRYHTLRK; not fully specified; printed as EDDVSFQK*LDDNVRYHTLRK)”, the spontaneous ejaculation entry with male rats is recorded as “result in spontaneous ejaculation”.

In the case of “GFANT05: engineered peptide TK*EELIHAHADPMVLIQKTDTGVSLQTYD; GFRAL receptor antagonist (T[Lys(N3)]EELIHAHADPMVLIQKTDTGVSLQTYD)”, the overall food consumption entry in the series with rats [2] (GFANT05 (300 pmol) added to MIC-1 (30 pmol), compared with MIC-1) is on record as “did not increase overall food consumption over MIC-1”. Also, in the series on rats [2] (GFANT05 (300 pmol) alone, 24 hrs post-administration, vs untreated control), the food intake result is on record as “ate the same amount of food as untreated control animals”. Moreover, the kaolin intake result in the series with rats [3] is reported as “reduced”. Also, the “effect on nausea/illness-like behaviors” value in the series on rats [4] is recorded as “significant effect”. The “co-localization with the GFRAL receptor” value with GFRAL receptor is listed as “co-localizing with the GFRAL receptor in the brainstem”.

As to “growth and differentiation factor 15 [GDF15]”, the spontaneous ejaculation result in the series on male rats is recorded as “the same effect”. In addition, the dissociation constant KD (as a rule, the free concentration of one partner at which half of the binding sites on the other are occupied at equilibrium, for simple one-to-one binding) in series [5] came to 1.03 ng/mL.
